Results from patent publication US20250179056A1, “NOVEL SULFATE SALT FORMS OF ISOCHROMAN-IMIDAZOLE STRUCTURED ALPHA-2A ADRENOCEPTOR AGONIST” (ORION CORPORATION, priority 2022, published 2025).
“Also recorded” adds a separate entry of the source.

Assay: Slurry experiments (SLC, SL, SLT) started with crystalline form 1; wet powders analyzed by XRPD
Format: physicochemical
Settings: for Resulting crystalline form SLC: aged at 5° C. under magnetic stirring; for Resulting crystalline form SLT: aged at 40° C. in shaker at 700 rpm; for Resulting crystalline form SL: aged at room temperature under magnetic stirring
Description: The slurry experiments (SLC, SL and SLT) were carried out with the crystalline form 1 in different conditions. 15 mg of starting material were mixed with 200 μl of solvent or solvent mixture (at a concentration of about 75 mg/ml). The mixture was homogenized by vortexing for 10 seconds. The resulting suspensions were aged at different conditions: a) at 5° C. under magnetic stirring (SLC), b) at room temperature under magnetic stirring (SL), and c) at 40° C. in the shaker at 700 rpm (SLT). During the aging time, the samples were checked regularly, and solvent was added if needed. After completing the aging time, the vials were opened, and the (wet) powders were analyzed by XRPD.

[1] = slurry in 2-Butanone, about 75 mg/ml
[2] = slurry in 2-Ethoxy ethanol, about 75 mg/ml
[3] = slurry in 2-Methyltetrahydrofuran, about 75 mg/ml
[4] = slurry in Acetone/Water (86:14 vol %), water activity 0.75, about 75 mg/ml
[5] = slurry in Acetonitrile/Water (96:4 vol %), water activity 0.60, about 75 mg/ml
[6] = slurry in Ethanol, about 75 mg/ml
[7] = slurry in Ethanol/Water (26:74 vol %), water activity >0.9, about 75 mg/ml
[8] = slurry in Methanol/Water (20:80 vol %), water activity >0.9, about 75 mg/ml
[9] = slurry in THF/Water (90:10 vol %), water activity 0.88, about 75 mg/ml
[10] = slurry in Water (water activity 1), about 75 mg/ml

Compound: COc1cccc2c1CCOC2C1=NCCN1.O=S(=O)(O)O (stereo not shown) [Form 1, 2-(5-methoxyisochroman-1-yl)-4,5-dihydro-1H-imidazole sulfate crystalline form 1]
- Resulting crystalline form SLC [1]: Form 1
- Resulting crystalline form SLT [1]: Form 1
- Resulting crystalline form SL [1]: Form 1
- Resulting crystalline form SLT [2]: Form 4
- Resulting crystalline form SL [2]: Form 4
- Resulting crystalline form SLC [3]: Form 1
- Resulting crystalline form SLT [3]: Form 1
- Resulting crystalline form SL [3]: Form 1
- Resulting crystalline form SLC [4]: Form 1
- Resulting crystalline form SLT [4]: Form 1
- Resulting crystalline form SL [4]: Form 1
- Resulting crystalline form SLC [5]: Form 1
- Resulting crystalline form SLT [5]: Form 1
- Resulting crystalline form SL [5]: Form 1
- Resulting crystalline form SLC [6]: Form 1
- Resulting crystalline form SLT [6]: Form 1
- Resulting crystalline form SL [6]: Form 1
- Resulting crystalline form SLC [7]: Form 2; also recorded: (+Form 1)
- Resulting crystalline form SLT [7]: Form 2
- Resulting crystalline form SL [7]: Form 2
- Resulting crystalline form SLC [8]: Form 2
- Resulting crystalline form SLT [8]: Form 2
- Resulting crystalline form SL [8]: Form 2
- Resulting crystalline form SLC [9]: Form 1
- Resulting crystalline form SLT [9]: Form 1
- Resulting crystalline form SLC [10]: Form 2
- Resulting crystalline form SLT [10]: Form 2
- Resulting crystalline form SL [10]: Form 2
